The test deals with porcine skin (ER); EpiDerm™ normal human derived epidermal keratinocytes (IP). Nature of the test: ER/IP: skin conductivity enhancement ratio (INSIGHT apparatus) divided by irritation potential (EpiDerm MTT viability). On the set-up: species or system Yorkshire pigs; human. The following applies: EpiDerm and INSIGHT apparatus, procedures of Examples 1 and 2; FIG. 32 left-hand panel.

Procedure: Formulations containing 1.5% (wt/vol) of each CPE were prepared in a 1:1 EtOH:PBS (ethanol:phosphate buffered saline) solvent.
Irritation potential of formulations was estimated using EpiDerm™ (MatTek Corporation, Ashland, Mass. www.mattek.com), a cell culture of normal human derived epidermal keratinocytes. EpiDerm™ cultures were stored and handled according to the standard protocol MTT-ET-50 supplied by MatTek Corporation. To study the effect of the test formulations on cell viability, cell cultures were exposed to 10 μl of the test formulation consisting of 1.5% (wt/vol) of each CPE in a 1:1 EtOH:PBS solvent for 4 hours. Each test formulation was analyzed in duplicate. The cell cultures were then handled as per the MTT-ET-50 protocol. The optical absorbance data from the extracted samples was then used to calculate the percentage cell viability as recommended in the protocol. Based on the cell viability, the irritation potential, IP, was defined as follows:
1% (wt/vol) Triton X-100 dissolved in water was used as the positive control and 1:1 PBS:EtOH was used as negative control. […]
Enhancement ratios were measured using an apparatus (the INSIGHT apparatus) which consisted of a polycarbonate plate that served as the receptor plate and a Teflon® plate that served as the donor plate. […]
Skin impedance in each well was recorded using two electrodes. […]

With `C=C(C)C(=O)OCCCCCCCCCCCCCCCCCC` [SM, stearyl methacrylate], the “FP/IPDescriptor (ER/IP determined experimentally) relative to oleic acid” value was “about 3 times”.

The values are drawn from patent publication US20090105260A1, “Molecules to Enhance Percutaneous Delivery and Methods for Discovery Therefor” (priority 2005, published 2009).
